# From publication PMC7970697, “Inhibition and Induction by Poziotinib of Different Rat Cytochrome P450 Enzymes In Vivo and in an In Vitro Cocktail Method” (Frontiers in Pharmacology, 2021)
# Read-outs that look alike come from different tables or passages of the source.
# Tests used:
# cyp2c11 = molecular target: T1, cyp2c11 (Rattus norvegicus, UniProt P08683); assay: Cocktail method IC50 in rat liver microsomes, tolbutamide probe; format: in vitro ADME; parameters: from tissue; host or cells: rat liver microsomes, prepared in-house
# T1 sequence (P08683 1-500): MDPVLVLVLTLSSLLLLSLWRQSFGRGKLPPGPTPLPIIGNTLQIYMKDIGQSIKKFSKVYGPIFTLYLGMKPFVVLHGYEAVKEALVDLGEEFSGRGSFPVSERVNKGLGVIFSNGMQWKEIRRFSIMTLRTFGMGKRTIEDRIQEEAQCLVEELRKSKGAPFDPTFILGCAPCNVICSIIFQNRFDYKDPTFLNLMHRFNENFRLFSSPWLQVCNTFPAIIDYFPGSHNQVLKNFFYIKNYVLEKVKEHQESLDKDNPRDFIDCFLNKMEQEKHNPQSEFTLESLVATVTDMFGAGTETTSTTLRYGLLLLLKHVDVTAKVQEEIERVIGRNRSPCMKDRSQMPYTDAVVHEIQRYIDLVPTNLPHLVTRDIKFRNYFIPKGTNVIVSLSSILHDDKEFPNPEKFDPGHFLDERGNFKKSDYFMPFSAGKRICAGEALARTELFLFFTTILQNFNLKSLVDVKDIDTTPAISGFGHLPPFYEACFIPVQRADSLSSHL
# Procedure: (§1) The cocktail method was employed to analyze the effects of poziotinib on cyp1a2, cyp2b1, cyp2c11, cyp2d1, cyp2e1, and cyp3a1/2. […] Then half-maximal inhibitory concentration (IC50) of poziotinib was determined with all of the CYPs. […]. To this cocktail, 1 mg/ml of RLMs, 100 mM potassium phosphate buffer (pH 7.4), poziotinib (1, 2.5, 5, 10, 25, 50, or 100 μM) were added to obtain a final volume of 200 μL. After pre-incubation of this mixture for 5 min in a shaking water bath at 37°C, 1 mM NADPH was added to start the reaction. The reactions were allowed to proceed for 30 min, after which 200 μL of acetonitrile and 20 μL of IS were added to terminate the reactions. The mixtures were vortexed for 30 s and centrifuged again at 13,000 rpm for 5 min.
# cyp1a2 = assay: Effect of poziotinib on cyp1a2 activity in rats (phenacetin pharmacokinetics); format: in vivo, Sprague-Dawley rats; conditions: poziotinib 5 mg/kg oral 7 days, phenacetin probe
# Procedure: Twelve male Sprague-Dawley rats (230 ± 20 g) were randomly divided into treated and control groups, with 6 in each group. […] The supernatant was mixed with 200 μL of acetonitrile and 20 μL of 0.5 μg/ml diazepam (IS), vortexed for 30 s, centrifuged at 13,000 rpm for 5 min, and the supernatant was injected into the UPLC-MS/MS system for analysis.
# Pharmacokinetic parameters were calculated using DAS software (Version 3.2.8). SPSS software (version 16.0; SPSS Inc., Chicago, IL, United States) was used to analyze the significance of differences between the main pharmacokinetic parameters. p < 0.05 was considered statistically significant. GraphPad (version 8.0; GraphPad Software Inc., San Diego, CA, United States) was used to calculate IC50 and plot the plasma concentration-time curves and inhibition plots (type of inhibition, time- and concentration-dependence).
# cyp2b1 = molecular target: T2, cyp2b1 (Rattus norvegicus, UniProt P00176); assay: Cocktail method IC50 in rat liver microsomes, bupropion probe; format: in vitro ADME; parameters: from tissue; host or cells: rat liver microsomes, prepared in-house
# T2 sequence (P00176 1-491): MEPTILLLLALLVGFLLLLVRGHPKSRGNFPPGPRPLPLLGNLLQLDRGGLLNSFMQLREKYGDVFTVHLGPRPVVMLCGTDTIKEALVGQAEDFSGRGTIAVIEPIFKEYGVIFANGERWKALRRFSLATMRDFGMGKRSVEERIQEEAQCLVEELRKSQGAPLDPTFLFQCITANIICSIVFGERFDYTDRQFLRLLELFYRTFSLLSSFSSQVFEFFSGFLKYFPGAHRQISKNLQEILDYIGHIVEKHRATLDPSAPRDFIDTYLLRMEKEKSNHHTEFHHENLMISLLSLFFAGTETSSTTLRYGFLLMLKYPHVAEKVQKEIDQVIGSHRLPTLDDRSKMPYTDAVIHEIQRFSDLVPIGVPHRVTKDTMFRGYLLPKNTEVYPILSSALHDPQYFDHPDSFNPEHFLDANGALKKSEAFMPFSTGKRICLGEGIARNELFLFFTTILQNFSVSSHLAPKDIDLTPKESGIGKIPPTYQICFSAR
# Procedure: as §1
structure (smiles),measurement,setting,value
C=CC(=O)N1CCC(Oc2cc3c(Nc4ccc(Cl)c(Cl)c4F)ncnc3cc2OC)CC1 [Poziotinib],inhibitory effect on cyp2c11 (in words),cyp2c11,strong
same,IC50,"cyp2c11; 100 μM tolbutamide, cocktail, 30 min, read-out: IC50",20.2 µM
same,IC50,"cyp2c11; classes after Jin et al., 2015, read-out: inhibition class by IC50, CYP2C11",> 10 µM
same,effect on cyp1a2 activity in rats,cyp1a2,induces cyp1a2 activity
same,IC50,"cyp2b1; 20 μM bupropion, cocktail, 30 min, read-out: IC50",8.79 µM
same,IC50,"cyp2b1; classes after Jin et al., 2015, read-out: inhibition class by IC50, CYP2B1",1 to 10 µM
